Earlier results as cited in patent US10959921B2, “Emulsifying system for microemulsions with high skin tolerance” (Henkel AG & Co. KGaA, priority 2017, dated 2021).

Conditions: concentrations above about 1.5 wt. %

lauryl glucoside
Skin tolerance in leave-on applications: skin intolerances
